Assay results as given in patent publication US20110054033A1, “METHODS OF USING ABSCISIC ACID FOR AMELIORATING HYPERTENSION AND VASCULAR INFLAMMATION” (Virginia Tech Intellectual Properties, Inc., priority 2009, published 2011).

Legend:
Type in all cases: in vivo, mice
[1] = tested on: monocyte chemoattractant protein 1 (MCP-1); test: Aortic gene expression by real-time RT-PCR: MCP-1; details: P=0.10
Procedure: (§1) FIG. 6 are graphs showing that ABA decreases immune cell infiltration in aortas of ApoE−/− mice and reduces pro-inflammatory gene expression. ApoE −/− mice were fed high fat diets created with or without 100 mg/kg diet racemic abscisic acid (ABA). (A) Infiltration of F4/80^+CD11b^+ macrophages and CD4^+ T-cells into the aorta were assessed with flow cytometry. Gene expression in the aorta of pro-inflammatory markers (B) vascular cell adhesion molecule 1 (VCAM-1), (C) monocyte chemoattractant protein 1 (MCP-1), (D) E-selectin, (F) peroxisome proliferator-activated receptor γ (PPAR γ), and (G) CD36 were measured as a ratio to the housekeeping gene β-actin. (H) MCP-1 protein concentrations (pg/mL) were measured by ELISA. Data were analyzed as a completely randomized design.
Total RNA was isolated from aortas using the RNA isolation Minikit (Qiagen) according to the manufacturer's instructions. […] Each gene amplicon was purified with the MiniElute PCR Purification Kit (Qiagen) and quantitated on an agarose gel by using a DNA mass ladder (Promega). […]
Complementary DNA (cDNA) concentrations for genes of interest were examined by real-time quantitative PCR using an iCycler IQ System and the iQ SYBR green supermix (Bio-Rad). […] Results are presented as a starting quantity of target cDNA (picograms) per microgram of total RNA. […]

[2] = tested on: MCP-1; test: MCP-1 concentrations in plasma by ELISA; details: P=0.10
Procedure: as §1
A Ready-set-go MCP-1 ELISA (ebioscience) was used to quantify plasma MCP-1 according to the manufacturer's instructions.

[3] = tested on: F4/80+CD11b+ macrophages and CD4+ T-cells; test: Flow cytometry of immune cell infiltration into the aortic root; details: day 84, flow cytometry
Procedure: as §1
After euthanization, mouse hearts were perfused with PBS for 2 minutes. Aortas were then extracted. Aortic roots were cut into small […] pieces, and placed in 1× Hanks Balanced Sodium Salt Solution (HBSS) containing 0.2% type II collagenase (Worthington Biochemicals). After digestion at 37° C. for 1 hour, samples were sent through a […] nylon filter (BD), washed with HBSS, and centrifuged at 1200 rpm for 10 min. Cell suspensions were then resuspended in FACS buffer and enumerated by using a Z1 Single Particle Counter (Beckman Coulter). […]

SMILES: CC1=CC(=O)CC(C)(C)C1(O)/C=C/C(C)=C\C(=O)O (racemic) [ABA, abscisic acid]
- MCP-1 mRNA expression in the aortic roots vs control [1]: reduced, though not to statistical significance
- Plasma MCP-1 concentrations vs control [2]: decreased
- Recruitment of CD4+ T-cells in the aortic root vs control [3]: significantly reduces recruitment
- Recruitment of F4/80+CD11b+ macrophages in the aortic root vs control [3]: significantly reduces recruitment
